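Compound exposure: 48 hours, 5 concentrations, 96-well plates. At the GI50, growth is halved.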 Active and inactive are the calls of the source. No stated cut-off is given here; in the data, active = GI50 up to about 1.1 µM and inactive = higher.
Key:
Assay in all cases: NCI anticancer screen, dose series, 48 h
A549 = system: A549
DU-145 = system: DU-145
HCC 2998 = system: HCC 2998
HL-60 = system: HL-60
K562 = system: K562
LOX IMVI = system: LOX IMVI
M14 = system: M14
MOLT-4 = system: MOLT-4
NCI-H23 = system: NCI-H23
OVCAR-3 = system: OVCAR-3
RPMI-8226 = system: RPMI-8226
SF-268 = system: SF-268
SF-539 = system: SF-539
SN12C = system: SN12C
SNB-19 = system: SNB-19
SNB-75 = system: SNB-75
SR = system: SR
U-251 = system: U-251
UACC-62 = system: UACC-62
UO-31 = system: UO-31

Measured: GI50

CC1=C(C(=O)OCCc2ccc([N+](=O)[O-])cc2)C(c2ccccc2C(F)(F)F)C(C(=O)OC(C)C)=C(C)N1 (stereo not given)
inactive: A549 2.81 µM | DU-145 9.16 µM | HCC 2998 4.92 µM | HL-60 1.79 µM | K562 2.41 µM | LOX IMVI 2.96 µM | M14 2.41 µM | MOLT-4 2.08 µM | NCI-H23 3.7 µM | OVCAR-3 3.48 µM | RPMI-8226 3.1 µM | SF-268 3.53 µM | SF-539 3.82 µM | SN12C 3.12 µM | SNB-19 4.85 µM | SNB-75 4.04 µM | SR 3.11 µM | U-251 3.52 µM | UACC-62 3.22 µM | UO-31 4.19 µM

Nc1ccc2c(c1)C(=O)c1ccc(F)cc1-2
inactive: A549 > 100 µM | DU-145 > 100 µM | HCC 2998 > 100 µM | HL-60 > 100 µM | K562 > 100 µM | LOX IMVI > 100 µM | M14 > 100 µM | MOLT-4 57.8 µM | NCI-H23 > 100 µM | OVCAR-3 > 100 µM | RPMI-8226 > 100 µM | SF-268 > 100 µM | SF-539 > 100 µM | SN12C > 100 µM | SNB-19 > 100 µM | SNB-75 > 100 µM | SR 87.1 µM | U-251 40.8 µM | UACC-62 > 100 µM | UO-31 > 100 µM

CCN(CC)C(=C(C(Cl)=C(Cl)Cl)[N+](=O)[O-])N(CC)CC
inactive: A549 > 100 µM | DU-145 62.4 µM | HCC 2998 > 100 µM | HL-60 29.6 µM | K562 46.5 µM | LOX IMVI 41 µM | M14 92 µM | MOLT-4 27.2 µM | NCI-H23 24.1 µM | OVCAR-3 37.5 µM | RPMI-8226 42.3 µM | SF-268 41 µM | SF-539 > 100 µM | SN12C 93.5 µM | SNB-19 29.6 µM | SNB-75 22.3 µM | SR 33.7 µM | U-251 > 100 µM | UACC-62 49.4 µM | UO-31 30.2 µM

O=c1[nH]cc(F)c(=O)[nH]1 [FLUOROURACIL]
inactive: A549 2.11 µM | DU-145 9.29 µM | HCC 2998 1.6 µM | HL-60 20.9 µM | K562 21.2 µM | LOX IMVI 6.03 µM | M14 46.5 µM | MOLT-4 14 µM | NCI-H23 12.2 µM | OVCAR-3 27.3 µM | RPMI-8226 4.91 µM | SF-268 51.4 µM | SF-539 1.33 µM | SN12C 24.9 µM | SNB-19 116 µM | SNB-75 181 µM | SR 4.36 µM | U-251 44.3 µM | UACC-62 13.9 µM | UO-31 5.64 µM

CSc1ncc2c(C#N)c3n(C)c4ccccc4n3c(=O)c2n1
inactive: A549 > 100 µM | DU-145 > 100 µM | HCC 2998 > 100 µM | HL-60 > 100 µM | K562 > 100 µM | LOX IMVI > 100 µM | M14 > 100 µM | MOLT-4 > 100 µM | NCI-H23 > 100 µM | OVCAR-3 > 100 µM | RPMI-8226 > 100 µM | SF-268 > 100 µM | SF-539 > 100 µM | SN12C > 100 µM | SNB-19 > 100 µM | SNB-75 > 100 µM | SR > 100 µM | U-251 > 100 µM | UACC-62 > 100 µM | UO-31 > 100 µM

O=C1CC(c2cccc([N+](=O)[O-])c2)C2(C(=O)NC(=S)NC2=O)C(c2cccc([N+](=O)[O-])c2)C1 (stereo not given)
inactive: A549 31 µM | DU-145 34.1 µM | HCC 2998 20.2 µM | HL-60 40.3 µM | K562 52 µM | LOX IMVI 16.5 µM | M14 21.9 µM | MOLT-4 66.4 µM | NCI-H23 29.2 µM | OVCAR-3 35.2 µM | RPMI-8226 59.7 µM | SF-268 15.9 µM | SF-539 40.6 µM | SN12C 19.9 µM | SNB-19 21.8 µM | SNB-75 43.4 µM | SR 49.4 µM | U-251 26.2 µM | UACC-62 23.2 µM | UO-31 47.2 µM
